Laboratory results: patent US20180161288A1, “TAU AGGREGATION INHIBITOR” (National Center for Geriatrics and Gerontology, priority 2011, published 2018)

What was measured:
human P301L mutant tau [1] = biological target: T1, human P301L mutant tau (Homo sapiens, UniProt P10636, P618L); assay: SDS-insoluble tau in Neuro2a cells expressing P301L mutant tau; assay type: cell-based; conditions: Neuro2a cells, 0.01, 0.1 and 1 μM isoprenaline for 48 hours; FIG. 3
T1 construct: expressed in transfected cells

tau [2] = biological target: T2, tau (Homo sapiens, UniProt P10636); assay: sucrose-density gradient centrifugation with SDS-PAGE western blotting of tau; assay type: biochemical; conditions: for amount of tau (granular and filamentous tau aggregates) fractionated into Fr3 and subsequent fractions: FIG. 11; for amount of tau in fractions Fr3, 4, 5, and 6: compound 100 μM, FIG. 2
tau [3] = biological target: T2, tau; assay: thioflavine T stain of heparin-induced tau aggregation; assay type: biochemical; conditions: 10 μM tau
tau [4] = biological target: T2, tau; assay: atomic force microscope observation of tau aggregation; assay type: biochemical; conditions: sample incubated for 120 hours; FIG. 12
Experimental: Thereafter, to analyze a change of tau aggregation by d-isoprenaline morphologically, the sample was investigated by using an atomic force microscope. A tau aggregation sample that had been incubated for 120 hours was loaded on a mica board and adsorbed thereon. […] FIG. 12A is a photograph of a control, FIG. 12B is a photograph showing effects of d-isoprenaline on a tau aggregation sample, and FIG. 12C is a graph of measured major axes of tau aggregation.

P301L tau Tg mice = assay: sarkosyl-insoluble tau in brains of P301L tau Tg mice; assay type: in vivo
tau [5] = biological target: T2, tau; assay: quantification of insoluble tau pellet after centrifugation at 250000 xg; assay type: biochemical; conditions: pellet after 250000 xg for 2 h
Experimental: For this analysis, 10-μM tau, a compound (1 μM, 10 μM, or 100 μM), and thioflavine T (a beta-pleated sheet structure-specific detection reagent) were mixed together. Thereafter, heparin, which is a tau aggregation inducer, was added to the mixture, and the resulting mixture was incubated at 37° C., thereby allowing tau to aggregate. Subsequently, the thioflavine T activity in an incubation sample was measured at various times to investigate tau aggregation inhibition effects by the compounds.
To further investigate the effects of these nine compounds on tau aggregation specifically, samples that had been incubated at 37° C. were centrifuged at 250000 ×g for 2 h, the resultant pellets were obtained so that the amount of insoluble tau were quantified.

WT tau Tg mice = assay: tau dephosphorylation (tau1 antibody) in TBS-soluble fractions from WT tau Tg mice; assay type: in vivo; conditions: TBS-soluble fraction; FIG. 9
Text: A change in tau phosphorylation in TBS-soluble fractions from WT tau Tg mice was investigated.

WT tau [6] = biological target: T3, WT tau (Homo sapiens, UniProt P10636); assay: tau and acetylated tubulin in microtubule fraction of WT tau-expressing COS-7 cells; assay type: cell-based, African green monkey; conditions: 10 μM, 24 hours
T3 construct: expressed in transfected cells; host or cells: COS-7 (African green monkey kidney)
Experimental: The homogenates were then centrifuged at 3000×g for 5 min at 25° C., and thea supernatant was obtained as a total fraction. The total fraction was further centrifuged at 100000×g for 20 min at 20° C., and a pellet (a microtubule fraction) was obtained. In this manner, the microtubule fraction was taken from the COS-7 cells expressing WT tau, and acetylated tubulin serving as an index of tau and microtubule stabilization was detected.

human P301L mutant tau [7] = biological target: T1, human P301L mutant tau; assay: tau phosphorylation (AT8) in RIPA-soluble fractions of Neuro2a cells; assay type: cell-based; conditions: RIPA-soluble fraction, FIG. 4
Experimental: As cells, Neuro2a cell lines in which human P301L mutant tau (i.e., mutant tau in which 301st proline of tau is changed to leucine) is expressed in stable were used. […] Then, SDS-insoluble fractions were obtained so that a change in the amounts of tau was observed.
In addition, changes of tau phosphorylation in radio-immunoprecipitation assay (RIPA) buffer-soluble fractions obtained from similar cells were analyzed. […] The composition of the RIPA buffer was 50 mM Tris-HCl (pH7.4), 150 mM sodium chloride, 0.25 w/v % sodium deoxycholate, 1 mM EGTA, and 1.0 w/v % NP-40 substitute.

WT tau [8] = biological target: T3, WT tau; assay: MC1 dot blotting and AT8 phosphorylation in WT tau-expressing COS-7 cells; assay type: cell-based, African green monkey
Text: Tau phosphorylations at AT8 sites are known to induce a tau conformational change (that can be detected with the MC1 antibody) observed in AD brains. Thus, WT tau was expressed in COS-7 cells (derived from African green monkey kidney), and a tau conformational change was detected by dot blotting using the MC1 antibody. The dot blotting is a technique of fixing protein to a nitrocellulose membrane or a PVDF membrane without separation through electrophoresis and specifically quantitating the protein amount with enzyme-labeled antibodies.

T3 sequence (P10636 1-441 isoform P10636-8): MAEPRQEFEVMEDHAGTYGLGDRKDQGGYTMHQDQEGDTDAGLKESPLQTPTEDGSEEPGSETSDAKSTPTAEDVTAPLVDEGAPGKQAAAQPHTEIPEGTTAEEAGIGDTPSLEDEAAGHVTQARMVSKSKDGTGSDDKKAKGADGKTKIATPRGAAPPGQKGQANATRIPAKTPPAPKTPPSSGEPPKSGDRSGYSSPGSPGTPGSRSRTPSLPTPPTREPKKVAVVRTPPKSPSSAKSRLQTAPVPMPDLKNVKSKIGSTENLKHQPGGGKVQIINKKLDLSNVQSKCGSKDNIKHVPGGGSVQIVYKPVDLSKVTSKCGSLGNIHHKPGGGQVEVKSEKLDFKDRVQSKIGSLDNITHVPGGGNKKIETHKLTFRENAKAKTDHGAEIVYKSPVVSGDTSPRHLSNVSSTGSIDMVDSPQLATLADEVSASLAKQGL
T2 sequence (P10636 1-441 isoform P10636-8): as above
T1 sequence (P10636 1-441 isoform P10636-8 P301L): as the sequence (P10636 1-441 isoform P10636-8) above, with P301L counted along it

[Cl-].[Li+] [lithium chloride]
amount of SDS-insoluble tau (human P301L mutant tau [1]): reduced the amounts of SDS-insoluble tau

CC(C)NC[C@@H](O)c1ccc(O)c(O)c1 [d-isoprenaline, (S)-(+)-isoprenaline]
amount of tau (granular and filamentous tau aggregates) fractionated into Fr3 and subsequent fractions (tau [2]): apparently reduced the amount of tau | thioflavine T activity (tau [3]; compound 1-100 μM, FIG. 10): inhibition of thioflavine T activity similar to that of d/l-isoprenaline | number of tau aggregates having major axes of 20 nm or more (tau [4]): apparently reduced the number of tau aggregates | amount of insoluble tau in cerebral cortices (P301L tau Tg mice; mice aged 20-21 months, 2.168 mg/g fed in mash for three months, FIGS. 13, 14): apparently reduced the amount of insoluble tau | amount of insoluble tau in hippocampi (P301L tau Tg mice; mice aged 20-21 months, 2.168 mg/g fed in mash for three months, FIGS. 15, 16): apparently reduced the amount of insoluble tau

NCCc1ccc(O)c(O)c1 [dopamine]
thioflavine T activity (tau [3]; FIG. 1, heparin, 37° C.): significantly reduced thioflavine T activity

CNC[C@H](O)c1ccc(O)c(O)c1 [(R)-(−)-epinephrine]
amount of tau in fractions Fr3, 4, 5, and 6 (tau [2]): reduced the amount of tau in fractions Fr3, 4, 5, and 6 | amount of insoluble tau (tau [5]): reduced the amount of insoluble tau in a concentration dependent manner | thioflavine T activity (tau [3]; FIG. 1, heparin, 37° C.): significantly reduced thioflavine T activity

CC(C)NCC(O)c1ccc(O)c(O)c1 (centres unmarked) [isoprenaline]
amount of tau in fractions Fr3, 4, 5, and 6 (tau [2]): reduced the amount of tau in fractions Fr3, 4, 5, and 6 | dephosphorylation of tau labeled by tau1 antibody (WT tau Tg mice): induced dephosphorylation of tau | thioflavine T activity (tau [3]; FIG. 1, heparin, 37° C.): significantly reduced thioflavine T activity | amount of tau in the microtubule fraction (WT tau [6]; FIG. 6A-C): increased the amount of tau in the microtubule fraction | amount of acetylated tubulin (WT tau [6]; FIG. 6D-F): further increased the amount of acetylated tubulin | tau phosphorylation (AT8) (human P301L mutant tau [7]): reduced tau phosphorylation | amount of sarkosyl-insoluble tau in the brains (P301L tau Tg mice; 1.5 mg/g fed mixed in mash for three months, FIG. 7): reduced the amount of sarkosyl-insoluble tau | tau phosphorylation (AT8 sites) (WT tau [8]; FIG. 5C): also reduced phosphorylation | tau conformational change detected with MC1 antibody (WT tau [8]; TBS-soluble fraction, FIG. 5A, 5B): reduced the tau conformational change | amount of SDS-insoluble tau (human P301L mutant tau [1]): reduced the amounts of SDS-insoluble tau

NC[C@H](O)c1ccc(O)c(O)c1 [norepinephrine]
thioflavine T activity (tau [3]; FIG. 1, heparin, 37° C.): significantly reduced thioflavine T activity

CC(C)NCC(O)c1ccc(O)c(O)c1 (racemic) [d/l-isoprenaline, mixture of (S)-(+)-isoprenaline and (R)-(−)-isoprenaline]
amount of tau (granular and filamentous tau aggregates) fractionated into Fr3 and subsequent fractions (tau [2]): apparently reduced the amount of tau | thioflavine T activity (tau [3]; compound 1-100 μM, FIG. 10): inhibition of thioflavine T activity
